Assay results reported in BindingDB's records for doi:10.1021/jm00082a020 (Bristol-Myers Squibb Pharmaceutical Research Institute, 1992).
pKd: −log10 of the molar value.

Assay: In vitro ability to displace the specific binding of [3H]diltiazem to diltiazem receptor in guinea pig skeletal muscle.
`COc1ccc([C@@H]2Cc3c(cccc3C(F)(F)F)N(CCN(C)C(C)=O)C(=O)[C@@H]2O)cc1` showed a pKd of 4.89.
For `COc1ccc([C@@H]2Cc3c(cccc3C(F)(F)F)N(CCN(C)CCCCc3ccccc3)C(=O)[C@@H]2OC(C)=O)cc1`, the pKd was 6.66.
Molecule `CC[C@H]1C(=O)N(CCN(C)C)c2cccc(C(F)(F)F)c2C[C@H]1c1ccc(OC)cc1` has a pKd of 6.22.
`COc1ccc([C@@H]2Cc3c(C(=O)OCc4ccccc4)cccc3N(CCN(C)C)C(=O)[C@@H]2OC(C)=O)cc1` showed a pKd of 5.85.
Molecule `C=CCN(C)CCN1C(=O)[C@H](OC(C)=O)[C@H](c2ccc(OC)cc2)Cc2c1cccc2C(F)(F)F` has a pKd of 6.38.
`COc1ccc([C@@H]2Cc3c(OC)cccc3N(CCN(C)C)C(=O)[C@@H]2OC(C)=O)cc1` showed a pKd of 5.74.
`COc1ccc([C@@H]2Cc3c(ccc(Br)c3OC)N(CCN(C)C)C(=O)[C@@H]2C)cc1` showed a pKd of 6.92.
`COc1ccc([C@@H]2Cc3c(cccc3C(F)(F)F)N(CCN(C)C)C(=O)[C@@H]2C)cc1OC` showed a pKd of 5.70.
Work on `CNC(=O)CN1C(=O)[C@H](OC(C)=O)[C@H](c2ccc(OC)cc2)Cc2c1cccc2C(F)(F)F` yielded a pKd of 4.82.
With `CNCCN1C(=O)[C@H](OC(C)=O)[C@H](c2ccc(OCCOC)cc2)Cc2c1cccc2C(F)(F)F` the pKd was 5.24.
For `CCC[C@H]1C(=O)N(CCN(C)C)c2ccccc2C[C@H]1c1ccc(OC)cc1`, the pKd was 6.60.
With `CCc1ccc([C@@H]2Cc3c(cccc3C(F)(F)F)N(CCN(C)C)C(=O)[C@@H]2C)cc1` the pKd was 6.00.
`COc1ccc([C@@H]2Cc3c(cccc3C(F)(F)F)N(CCN(C)C)C(=O)[C@@H]2O)cc1` showed a pKd of 6.18.
In the case of `CNc1ccc([C@@H]2Cc3c(cccc3C(F)(F)F)N(CCN(C)C)C(=O)[C@@H]2C)cc1`, the pKd was 6.24.
`CSc1ccc([C@@H]2Cc3c(cccc3C(F)(F)F)N(CCN(C)C)C(=O)[C@@H]2C)cc1` showed a pKd of 5.96.
With `COc1ccc([C@@H]2Cc3c(cccc3C(F)(F)F)N(CC(C)N(C)C)C(=O)[C@@H]2C)cc1` (stereo partly specified) the pKd was 6.49.
Molecule `COc1ccc([C@@H]2Cc3c(ccc(Br)c3OC)N(CCN(C)C)C(=O)[C@@H]2OC(C)=O)cc1` has a pKd of 6.92.
`COc1ccc([C@@H]2Cc3c(cccc3C(F)(F)F)N(CCN(C)C(C)C)C(=O)[C@@H]2C)cc1` showed a pKd of 6.89.
`C[C@H]1C(=O)N(CCN(C)C)c2cccc(C(F)(F)F)c2C[C@H]1c1ccc(O)cc1` gave a pKd of 5.80.
With `COc1ccc([C@@H]2Cc3c(cccc3C(F)(F)F)N(CC[N+](C)(C)C)C(=O)[C@@H]2C)cc1` the pKd was 6.08.
Molecule `CCCN(C)CCN1C(=O)[C@H](OC(C)=O)[C@H](c2ccc(OC)cc2)Cc2c1cccc2C(F)(F)F` has a pKd of 6.28.
With `C#CCN(C)CCN1C(=O)[C@H](OC(C)=O)[C@H](c2ccc(OC)cc2)Cc2c1cccc2C(F)(F)F` the pKd was 5.74.
Molecule `COc1ccc([C@@H]2Cc3c(OC)cccc3N(CCN(C)C)C(=O)[C@@H]2C)cc1` has a pKd of 6.40.
`COc1ccc([C@@H]2Cc3ccccc3N(CCN(C)C)C(=O)[C@@H]2OC(C)=O)cc1` showed a pKd of 5.29.
In the case of `CNCCN1C(=O)[C@H](OC(C)=O)[C@H](c2ccc(OC)cc2)Cc2c1cccc2C(F)(F)F`, the pKd was 6.80.

Assay: as above
Remark: another data set of the same source
In the case of `COc1ccc([C@@H]2Cc3c(cccc3C(F)(F)F)N(C(C)CN(C)C)C(=O)[C@@H]2C)cc1` (stereo partly specified), the pKd was 6.27.
